Tests used:
Assay type in all cases: cell-based, human
[1] = test system: M1619 melanoma cells; experiment: MTT proliferation assay, M1619 melanoma; conditions: CuSO4 supplementation of medium without disulfiram
Procedure: Human malignant cell lines were obtained from American Type Tissue Culture Collection (Rockville, Md.). Melanoma cells lines CRL 1585 and 1619 were cultured in RPMI 1640 (GIBCO-BRL, Life Technologies, Grand Island, N.Y.) with 10% FBS and passed with nonenzymatic Cell Dissociation Solution® (Sigma). The prostate adenocarcinoma cell line CRL 1435 (PC-3) was also cultured in RPMI 1640 with 10% FBS but passed with 0.05% trypsin and 0.53 mM EDTA. The squamous lung carcinoma NCI-H520 and the adenosquamous lung carcinoma NCI-H596 cell lines were grown in RPMI 1640 supplemented with 10% FBS, 10 mM HEPES and 1.0 mM sodium pyruvate and passed with trypsin/EDTA. The small cell lung carcinoma NCI-H82 was cultured as a suspension in RPMI 1640 with 10% FBS. All of the above were grown in a 37° C. humidified environment containing 5% CO2/air. The breast carcinoma cell line MDA-MB-453 was grown in a 37° C. humidified environment with free gas exchange with atmospheric air using Leibovitz's L-15 medium with 2 mM L-glutamine and 10% FBS and was passed with trypsin/EDTA.
The effect of disulfiram (0.15 to 5.0 μM), diethyldithiocarbamate (DDC, 1.0 μM) or PDTC (0.625 to 5.0 μM) on proliferation of malignant cell lines was studied in cultures stimulated with 10% FBS. Cell numbers were quantitated 24-72 hours later. In some experiments disulfiram or PDTC were added immediately after cells were plated. In other experiments, cells were plated and allowed to grow for 24-72 hours before fresh media with disulfiram or PDTC was added, and cell numbers were assayed 24-72 hours later.
Finally, a number of dithiocarbamate effects on cells have been attributed to increasing the intracellular levels of copper ions. To further probe the role of copper in mediating cytotoxicity from disulfiram, cells were cultured with or without addition of the impermeate Cu^2+ chelator bathocuprioinedisulfonic acid (BCPS, 100 μM) added to medium to sequester Cu^2+ in the extracellular compartment. Cells were also treated 12 hours with various concentration of disulfiram (0.625 to 5.0 μM) and intracellular copper levels were measured as outlined below.
Proliferation of cultured cells was quantitated using a previously reported calorimetric method based upon metabolic reduction of the soluble yellow tetrazolium dye 3-[4,5-dimethylthiazol]-2yl-2,5-diphenyl tetrazolium bromide (MTT) to its insoluble purple formazan by the action of mitochondrial succinyl dehydrogenase (See, e.g., S. J. Hirst, et al., “Quantifying proliferation of cultured human and rabbit airway smooth muscle in response to serum and platelet derived growth factor,” Am. J. Respir. Cell Mol. Biol. 7:574-581 (1992); R. Dashtaki, et al. R., supra; S. S. Brar, et al., “Requirement for reactive oxygen species in serum-induced and platelet-derived growth factor-induced growth of airway smooth muscle,” J. Biol. Chem. 274:20017-20026 (1999)). This assay empirically distinguishes between dead and living cells. For proliferation studies, cells were seeded into 24-well uncoated plastic plates (Costar) at 50,000 cells per well and cultured with respective media and mitogens.

[2] = test system: cyclin A; experiment: Immunoblot for cyclin A in M1619 cells; conditions: CuSO4 1.6 μM alone; 24 hours
Procedure: Cells were lysed and proteins were isolated and quantitated by immunoassay as previously detailed using 2 μg/ml of primary rabbit polyclonal antibodies against human bcl-2, p53, p21^WAF1/CiP1, cyclin A and cyclin B1, and peroxidase-labeled donkey polyclonal anti-rabbit IgG. Cells were placed on ice, washed twice with cold DPBS, scraped into 0.5 ml boiling buffer (10% [vol/vol] glycerol and 2% [wt/vol] sodium dodecyl sulfate [SDS] in 83 mM Tris, pH 6.8) and sheared by four passages through a pipette. Aliquots were removed for protein determination, using the BCA protein assay (Pierce). After 10% β-mercaptoethanol and 0.05% bromophenol blue were added, lysates were boiled for 5 min and stored at -80° C. until immunoblotting was performed. Proteins in defrosted samples were separated by SDS-polyacrylamide gel electrophoresis on 12% polyacrylamide gels (15 μg protein/lane) and electrotransferred to 0.45 μm Hybond ECL nitrocellulose membranes (Amersham Life Sciences) using the wet transblot method in transfer buffer (0.025 M Tris, 0.192 M glycine, 2.6 mM SDS, and 20%[vol/vol] methanol; pH 8.8) at 100 volts for 1 hour. Blots were blocked overnight at 4° C. with blocking buffer (PBS with 0.1% Tween 20) containing 5% fat-free milk powder (Carnation, Glendale, Calif.). After rinsing 5 times for 5 minutes each in PBS containing 0.1% Tween 20, blots were incubated for 1 hour at room temperature with 2.0 μg/ml of primary antibody. After rinsing again as above, blots were incubated for 1 hr at room temperature with horseradish peroxidase (HRP)-conjugated secondary antibody diluted 1:5,000 in blocking buffer. Immunoblots were rinsed again as above and detected via an enhanced chemiluminescence method (ECL Western blotting detection system, Amersham Life Science, Buckinghamshire, England). Autoradiographic film (X-OMAT AR, Eastman Kodak, Rochester, N.Y.) was exposed to immunoblots for 10, 30, or 60 seconds to obtain satisfactory images. Since disulfiram and copper disrupt transcription factor DNA binding to CRE, their effect on expression of cyclin A was studied. […]

[3] = test system: M1619 cells; experiment: Intracellular reactive oxygen species, dichlorofluorescin probe; conditions: CuSO4 0.2-1.6 μM
Procedure: Potential redox effects of disulfiram were studied in three sets of experiments. The importance of cellular glutathione (GSH) in mediating or modulating thiocarbamate toxicity was studied by measuring levels of intracellular GSH after treatment with disulfiram. […] Also, to assess whether a nonspecific antioxidant effect of disulfiram or PDTC might account for cellular growth inhibition, we studied the effect of the potent lipophilic antioxidant probucol (1.0 to 1,000 μM) on proliferation of malignant cell lines. […] A. Royall, et al., “Evaluation of 2′,7′-dichlorofluorescin and dihydrorhodamine 123 as fluorescent probes for intracellular H2O2 in cultured endothelial cells,” Archiv. Biochem. Biophys. 302:348-355 (1993)). […] Cells were plated in 24 well plastic plates at 50,000 cells per well and grown to confluence. Media was aspirated from wells and replaced with 100 μl medium containing 10 μM DCF-DA, and plates were incubated at 37° C. for 30 minutes. The DCF-DA containing media was aspirated, cells were washed twice with media alone and 100 μl fresh media was added to wells. […] The relative concentration of dichlorofluroescein was measured immediately by monitoring fluorescence at 37° C. using an excitation wavelength of 485 nm and emission wavelength of 535 nm.

O=S(=O)([O-])[O-].[Cu+2] [CuSO4, cupric sulfate]
cell growth, copper alone [1]: do not by themselves affect cell growth | cyclin A expression [2]: little effect | generation of reactive oxygen species (dichlorofluorescein fluorescence vs baseline) [3]: not increased
